Tested on: 11βhsd2 cardiac-specific transgenic mice
Test: Eplerenone treatment of 11βhsd2 cardiac-specific transgenic mice, echocardiography
Type: in vivo, mouse
Settings: male transgenic mice, chow containing eplerenone approx. 200 mg/kg/day from 4 weeks of age
Description: Starting at 4 weeks of age male transgenic mice were supplied with either chow containing eplerenone (approximate dose of 200 mg/kg/day) to eat or normal chow.
Echocardiograms were acquired using a Sonos 5500 echocardiographic system equipped with a 15-MHz linear-array transducer (Agilent, Andover, Mass.). Images were obtained from mice lightly anesthetized with 1-2% isoflurane (AErrane; Baxter, Inc., Deerfield, Ill.) lying in the left lateral decubitus position. Care was taken to maintain adequate contact while avoiding excessive pressure on the chest wall. Two-dimensional parasternal long and short-axis images of the left ventricle were obtained. Two-dimensional targeted M-mode tracings were recorded from the parasternal short-axis view at the level of the papillary muscles at a sweep speed of 150 mm/s. All echocardiograms were recorded digitally on a rewritable magneto-optical disk. Measurements and calculations used are as follows: Left Ventricular End diastolic (EDV) and systolic (ESV) volumes were calculated via the method of discs from direct measurement systolic (LVAs) and diastolic (LVAd) areas. Ejection Fraction (EF) was calculated from systolic and diastolic volumes with the following formula: EF=(EDV−ESV)/EDV×100. […] Heart rate (HR) was calculated by measuring the R-R interval in M-mode and using the formula: HR=60(sec/min)/R-R interval(sec/beat). […]

Which “development of left ventricular dysfunction and heart failure” value (2.5 months of treatment) does the source give for COC(=O)[C@@H]1CC2=CC(=O)CC[C@]2(C)[C@@]23O[C@@H]2C[C@@]2(C)[C@@H](CC[C@@]24CCC(=O)O4)[C@H]13 [eplerenone] here?
The value was “significantly attenuated”.

What about the myocardial function (after 2.5 months of treatment, versus normal chow) of the same molecule?
Its myocardial function is “significantly improved”.

Source: patent US20030221207A1, “Cardiac-specific 11beta hydroxysteroid dehydrogenase type 2 transgenic mice” (Pharmacia Corporation, Global Patent Department, priority 2002, published 2003)
